# Measured values published in patent US8450313B2, “2,3-diaryl- or heteroaryl-substituted 1,1,1-trifluoro-2-hydroxypropyl compounds” (Hoffmann-La Roche Inc., priority 2009, dated 2013).
# Biological target: T1, full length human recombinant glucocorticoid receptor (Homo sapiens, UniProt P04150)
# T1 construct: It contains some partially purified full length human recombinant glucocorticoid receptor; purchased Panvera/Invitrogen PV4302
# T1 sequence (P04150 1-777): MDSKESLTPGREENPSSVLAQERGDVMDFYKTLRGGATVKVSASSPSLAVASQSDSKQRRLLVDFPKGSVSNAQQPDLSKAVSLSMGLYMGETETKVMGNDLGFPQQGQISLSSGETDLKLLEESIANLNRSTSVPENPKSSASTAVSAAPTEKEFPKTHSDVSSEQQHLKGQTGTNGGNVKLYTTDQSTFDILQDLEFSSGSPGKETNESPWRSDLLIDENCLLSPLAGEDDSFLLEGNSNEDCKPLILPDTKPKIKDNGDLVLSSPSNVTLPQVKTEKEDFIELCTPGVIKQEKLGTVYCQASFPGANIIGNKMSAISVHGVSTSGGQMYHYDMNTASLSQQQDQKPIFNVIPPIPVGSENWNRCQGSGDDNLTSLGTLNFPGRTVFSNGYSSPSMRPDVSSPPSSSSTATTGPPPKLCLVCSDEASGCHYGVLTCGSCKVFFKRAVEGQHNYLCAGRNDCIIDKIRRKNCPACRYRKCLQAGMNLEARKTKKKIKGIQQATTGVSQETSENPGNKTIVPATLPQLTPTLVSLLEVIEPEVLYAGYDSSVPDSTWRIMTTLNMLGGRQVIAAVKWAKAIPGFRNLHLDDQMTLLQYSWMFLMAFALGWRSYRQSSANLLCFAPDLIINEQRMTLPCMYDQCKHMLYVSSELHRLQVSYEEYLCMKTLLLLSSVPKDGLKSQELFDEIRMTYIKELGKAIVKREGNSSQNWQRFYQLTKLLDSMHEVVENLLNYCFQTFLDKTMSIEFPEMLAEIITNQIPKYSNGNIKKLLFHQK
# Test: Glucocorticoid Receptor Binding Assay (Glucocorticoid Receptor Competitor Assay far red kit, fluorescence polarization)
# Conditions: competition with fluorescent GR ligand Fluormone GS Far Red, 3 hours at 22° C., pH 7.4; Ki calculated from IC50 by Cheng-Prusoff
# Procedure: Glucocorticoid Receptor Binding Assay
# The ability of the substances to bind to the glucocorticoid receptor was determined with the help of a commercial Glucocorticoid Receptor Competitor Assay far red kit provided by Panvera/Invitrogen (PV4302). This kit is used as provided by the supplier. It contains some partially purified full length human recombinant glucocorticoid receptor, a coactivator related GR stabilizing peptide, a tight-binding fluorescent GR ligand Fluormone™ GS Far Red as labeled tracer and a screening buffer. All reagents are prepared and the assay is run according to the recommendations of the kit manufacturer.
# Briefly, the GR stabilizing peptide and the human recombinant glucocorticoid receptor are both diluted with the screening buffer (pH 7.4) and are gently mixed (no vortexing) just before the assay and kept on ice until use. The fluorescent-labeled ligand is also diluted with the screening buffer just before the assay and kept on ice until use. The substances to test are pre-diluted in pure DMSO then some water is added to get an intermediate 4.2% DMSO stock solution. Ten microliter of the intermediate stock solution is gently mixed with 5 μA of diluted fluorescent-labeled ligand and 5 μl of diluted human recombinant glucocorticoid receptor in a 384-well plate (low volume, ultraclear, glass plate from Greiner ref 788896). The plate is centrifuged, sealed and incubated for 3 hours at 22° C. in the dark. The polarized fluorescence is measured with a Zeiss-HTS reader or any equivalent equipment (610-660 nm).
# All compounds were tested to determine IC50 in a serial dilution experiment. The concentration at which 50% inhibition of the fluorescent GR ligand Fluormone™ GS Far Red is obtained (the IC50) is determined after fitting with a sigmoidal dose-response model of a plot of the logarithm of the concentration versus percent inhibition measured for the different concentrations. Ki's were calculated from IC50 based on Cheng-Prusoff equation (Cheng, Y, Prusoff, W H (1973) Biochem Pharmacol 22, 3099-3108): Ki=IC50/[1+D/Kd] wherein D is the concentration of the fluorescent ligand and Kd is the binding constant for the fluorescent ligand binding to the receptor under the conditions used in the competition experiment.
row,Structure (SMILES),Ki [nM]
1,"COC(=O)c1ccc(Oc2ccc(Cl)c([C@H](C)[C@](O)(c3ccc4c(c3)N(C)C(=O)CO4)C(F)(F)F)c2)cc1F (relative stereo) [Example 13, 4-{4-Chloro-3-[3,3,3-trifluoro-2-hydroxy-1-methyl-2-(4-methyl-3-oxo-3,4-dihydro-2H-benzo[1,4]oxazin-6-yl)-propyl]-phenoxy}-2-fluoro-benzoic acid methyl ester]",5.4
2,"C[C@@H](c1cc(Oc2ccc(C(=O)O)c(F)c2)ccc1Cl)[C@](O)(c1ccc2c(c1)N(C)C(=O)CO2)C(F)(F)F (relative stereo) [Example 14, 4-{4-Chloro-3-[3,3,3-trifluoro-2-hydroxy-1-methyl-2-(4-methyl-3-oxo-3,4-dihydro-2H-benzo[1,4]oxazin-6-yl)-propyl]-phenoxy}-2-fluoro-benzoic acid]",3.9
3,"C[C@@H](c1cc(Oc2ccc(Cl)c(C(=O)O)c2)ccc1Cl)[C@](O)(c1ccc2c(c1)N(C)C(=O)CO2)C(F)(F)F (relative stereo) [Example 15, 2-Chloro-5-{4-chloro-3-[3,3,3-trifluoro-2-hydroxy-1-methyl-2-(4-methyl-3-oxo-3,4-dihydro-2H-benzo[1,4]oxazin-6-yl)-propyl]-phenoxy}-benzoic acid]",3.7
4,"C[C@@H](c1cc(Oc2ccc(C(=O)O)cc2F)ccc1Cl)[C@](O)(c1ccc2c(c1)N(C)C(=O)CO2)C(F)(F)F (relative stereo) [Example 16, 4-{4-Chloro-3-[3,3,3-trifluoro-2-hydroxy-1-methyl-2-(4-methyl-3-oxo-3,4-dihydro-2H-benzo[1,4]oxazin-6-yl)-propyl]-phenoxy}-3-fluoro-benzoic acid]",2.5
5,"C[C@@H](c1cc(-c2ccc(C(=O)O)cc2)ccc1Cl)[C@](O)(c1ccc2c(c1)N(C)C(=O)CO2)C(F)(F)F (relative stereo) [Example 17, 4′-Chloro-3′-[3,3,3-trifluoro-2-hydroxy-1-methyl-2-(4-methyl-3-oxo-3,4-dihydro-2H-benzo[1,4]oxazin-6-yl)-propyl]-biphenyl-4-carboxylic acid]",55.6
6,"C[C@@H](c1cc(-c2cccc(C(=O)O)c2)ccc1Cl)[C@](O)(c1ccc2c(c1)N(C)C(=O)CO2)C(F)(F)F (relative stereo) [Example 18, 4′-Chloro-3′-[3,3,3-trifluoro-2-hydroxy-1-methyl-2-(4-methyl-3-oxo-3,4-dihydro-2H-benzo[1,4]oxazin-6-yl)-propyl]-biphenyl-3-carboxylic acid]",609
7,"COC(=O)CC1CCN(C(=O)c2ccc(Cl)c([C@H](C)[C@](O)(c3ccc4c(c3)N(C)C(=O)CO4)C(F)(F)F)c2)CC1 (relative stereo) [Example 19, (1-{4-Chloro-3-[3,3,3-trifluoro-2-hydroxy-1-methyl-2-(4-methyl-3-oxo-3,4-dihydro-2H-benzo[1,4]oxazin-6-yl)-propyl]-benzoyl}-piperidin-4-yl)-acetic acid methyl ester]",214
8,"C[C@@H](c1ccc(-c2ccccc2C(=O)O)cc1Cl)[C@](O)(c1ccc2c(c1)N(C)C(=O)CO2)C(F)(F)F (relative stereo) [Example 24, 3′-Chloro-4′-[3,3,3-trifluoro-2-hydroxy-1-methyl-2-(4-methyl-3-oxo-3,4-dihydro-2H-benzo[1,4]oxazin-6-yl)-propyl]-biphenyl-2-carboxylic acid]",19.6
9,"C[C@@H](c1ccc(-c2ccc(CCC(=O)O)cc2)cc1Cl)[C@](O)(c1ccc2c(c1)N(C)C(=O)CO2)C(F)(F)F (relative stereo) [Example 29, 3-{3′-Chloro-4′-[3,3,3-trifluoro-2-hydroxy-1-methyl-2-(4-methyl-3-oxo-3,4-dihydro-2H-benzo[1,4]oxazin-6-yl)-propyl]-biphenyl-4-yl}-propionic acid]",7.5
10,"COC(=O)c1ccc(-c2ccc([C@H](C)[C@](O)(c3ccc4c(c3)N(C)C(=O)CO4)C(F)(F)F)c(Cl)c2)cc1Cl (relative stereo) [Example 30, 3,3′-Dichloro-4′-[3,3,3-trifluoro-2-hydroxy-1-methyl-2-(4-methyl-3-oxo-3,4-dihydro-2H-benzo[1,4]oxazin-6-yl)-propyl]-biphenyl-4-carboxylic acid methyl ester]",2
11,"C[C@@H](c1ccc(-c2ccc(C(=O)O)c(Cl)c2)cc1Cl)[C@](O)(c1ccc2c(c1)N(C)C(=O)CO2)C(F)(F)F (relative stereo) [Example 31, 3,3′-Dichloro-4′-[3,3,3-trifluoro-2-hydroxy-1-methyl-2-(4-methyl-3-oxo-3,4-dihydro-2H-benzo[1,4]oxazin-6-yl)-propyl]-biphenyl-4-carboxylic acid]",3.1
12,"C[C@@H](c1ccc(-c2ccc(F)c(C(=O)O)c2)cc1Cl)[C@](O)(c1ccc2c(c1)N(C)C(=O)CO2)C(F)(F)F (relative stereo) [Example 32, 3′-Chloro-4-fluoro-4′-[3,3,3-trifluoro-2-hydroxy-1-methyl-2-(4-methyl-3-oxo-3,4-dihydro-2H-benzo[1,4]oxazin-6-yl)-propyl]-biphenyl-3-carboxylic acid]",1.3
13,"COC(=O)c1ccc(-c2ccc([C@H](C)[C@](O)(c3ccc4c(c3)N(C)C(=O)CO4)C(F)(F)F)c(Cl)c2)c(F)c1 (relative stereo) [Example 33, 3′-Chloro-2-fluoro-4′-[3,3,3-trifluoro-2-hydroxy-1-methyl-2-(4-methyl-3-oxo-3,4-dihydro-2H-benzo[1,4]oxazin-6-yl)-propyl]-biphenyl-4-carboxylic acid methyl ester]",17.3
14,"COC(=O)c1ccc(-c2ccc([C@H](C)[C@](O)(c3ccc4c(c3)N(C)C(=O)CO4)C(F)(F)F)c(Cl)c2)cc1OC (relative stereo) [Example 35, 3′-Chloro-3-methoxy-4′-[3,3,3-trifluoro-2-hydroxy-1-methyl-2-(4-methyl-3-oxo-3,4-dihydro-2H-benzo[1,4]oxazin-6-yl)-propyl]-biphenyl-4-carboxylic acid methyl ester]",2.6
15,"COc1cc(-c2ccc([C@H](C)[C@](O)(c3ccc4c(c3)N(C)C(=O)CO4)C(F)(F)F)c(Cl)c2)ccc1C(=O)O (relative stereo) [Example 36, 3′-Chloro-3-methoxy-4′-[3,3,3-trifluoro-2-hydroxy-1-methyl-2-(4-methyl-3-oxo-3,4-dihydro-2H-benzo[1,4]oxazin-6-yl)-propyl]-biphenyl-4-carboxylic acid]",6.5
16,"C[C@@H](c1ccc(-c2ccc(CC(=O)O)cc2)cc1Cl)[C@](O)(c1ccc2c(c1)N(C)C(=O)CO2)C(F)(F)F (relative stereo) [Example 37, {3′-Chloro-4′-[3,3,3-trifluoro-2-hydroxy-1-methyl-2-(4-methyl-3-oxo-3,4-dihydro-2H-benzo[1,4]oxazin-6-yl)-propyl]-biphenyl-4-yl}-acetic acid]",6.6
17,"C[C@@H](c1ccc(-c2cc(C(=O)O)ccc2F)cc1Cl)[C@](O)(c1ccc2c(c1)N(C)C(=O)CO2)C(F)(F)F (relative stereo) [Example 38, 3′-Chloro-6-fluoro-4′-[3,3,3-trifluoro-2-hydroxy-1-methyl-2-(4-methyl-3-oxo-3,4-dihydro-2H-benzo[1,4]oxazin-6-yl)-propyl]-biphenyl-3-carboxylic acid]",1.8
18,"CCOC(=O)c1cc(-c2ccc([C@H](C)[C@](O)(c3ccc4c(c3)N(C)C(=O)CO4)C(F)(F)F)c(Cl)c2)ccc1Cl (relative stereo) [Example 39, 4,3′-Dichloro-4′-[3,3,3-trifluoro-2-hydroxy-1-methyl-2-(4-methyl-3-oxo-3,4-dihydro-2H-benzo[1,4]oxazin-6-yl)-propyl]-biphenyl-3-carboxylic acid ethyl ester]",0.7
